Test results: patent US9005937B2, “Dual cofactor specific ribitol dehydrogenase and use thereof” (Konkuk University Industrial Cooperation Corp., priority 2011, dated 2015)
Residue numbers refer to the chain shown, from its start. Where two headings read alike, the source gives them in different places.

Tests used:
[1] = biological target: T1, Zymomonas mobilis ribitol dehydrogenase, wild-type, SEQ ID NO: 4 (Zymomonas mobilis, UniProt Q5NQS1); assay: Dynamical (kinetic) parameters of ribitol dehydrogenase to coenzyme NAD(H)/NADP(H), wild-type; assay type: biochemical
T1 sequence (Q5NQS1 74-338): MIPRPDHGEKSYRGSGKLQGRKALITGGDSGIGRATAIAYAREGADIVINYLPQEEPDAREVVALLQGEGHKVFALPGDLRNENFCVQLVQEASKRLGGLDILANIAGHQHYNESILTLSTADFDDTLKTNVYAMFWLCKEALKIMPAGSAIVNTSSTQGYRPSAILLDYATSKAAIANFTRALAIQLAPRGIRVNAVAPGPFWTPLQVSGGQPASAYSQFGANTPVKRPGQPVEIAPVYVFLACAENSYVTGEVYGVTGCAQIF
Method: (§2) The optimum pH on dehydrogenation activity of the ribitol dehydrogenase was measured using 20 mM of Tris-HCl buffer. The enzyme activity was determined by monitoring the change per minute in absorbance at 340 nm while the sample was reacted in the presence of NAD(H) and ribitol.
Then, dynamical parameters were measured through a nonlinear regression analysis.

[2] = biological target: T2, Zymomonas mobilis ribitol dehydrogenase (SEQ ID NO: 4) variant S156A (Zymomonas mobilis, UniProt Q5NQS1, S229A); assay: Dynamical parameters to coenzyme, variant S156A; assay type: biochemical
T2 sequence (Q5NQS1 74-338 S229A): T1 sequence (Q5NQS1 74-338) with S156A
Source text: (§1) There were no differences between the expression amount of various amino acid variants of Ser 156 and the expression amount of wide-type. The dynamical parameter of each of variants was confirmed using the above variants.

[3] = biological target: T3, Zymomonas mobilis ribitol dehydrogenase (SEQ ID NO: 4) variant S156G (Zymomonas mobilis, UniProt Q5NQS1, S229G); assay: Dynamical parameters to coenzyme, variant S156G; assay type: biochemical
T3 sequence (Q5NQS1 74-338 S229G): T1 sequence (Q5NQS1 74-338) with S156G
Source text: as §1

[4] = biological target: T4, Zymomonas mobilis ribitol dehydrogenase (SEQ ID NO: 4) variant S156T (Zymomonas mobilis, UniProt Q5NQS1, S229T); assay: Dynamical parameters to coenzyme, variant S156T; assay type: biochemical
T4 sequence (Q5NQS1 74-338 S229T): T1 sequence (Q5NQS1 74-338) with S156T
Source text: as §1

[5] = biological target: T5, Zymomonas mobilis ribitol dehydrogenase (SEQ ID NO: 4) variant S156C (Zymomonas mobilis, UniProt Q5NQS1, S229C); assay: Dynamical parameters to coenzyme, variant S156C; assay type: biochemical
T5 sequence (Q5NQS1 74-338 S229C): T1 sequence (Q5NQS1 74-338) with S156C
Source text: as §1

[6] = biological target: T6, Zymomonas mobilis ribitol dehydrogenase (SEQ ID NO: 4) variant S156Y (Zymomonas mobilis, UniProt Q5NQS1, S229Y); assay: Dynamical parameters to coenzyme, variant S156Y; assay type: biochemical
T6 sequence (Q5NQS1 74-338 S229Y): T1 sequence (Q5NQS1 74-338) with S156Y
Source text: as §1

[7] = biological target: T7, Zymomonas mobilis ribitol dehydrogenase (SEQ ID NO: 4) variant S156W (Zymomonas mobilis, UniProt Q5NQS1, S229W); assay: Dynamical parameters to coenzyme, variant S156W; assay type: biochemical
T7 sequence (Q5NQS1 74-338 S229W): T1 sequence (Q5NQS1 74-338) with S156W
Source text: as §1

[8] = biological target: T8, Zymomonas mobilis ribitol dehydrogenase (SEQ ID NO: 4) variant S156D, SEQ ID NO: 5 (Zymomonas mobilis, UniProt Q5NQS1, N321D/S229D); assay: Dynamical parameters to coenzyme, variant S156D; assay type: biochemical
T8 sequence (Q5NQS1 74-338 S229D/N321D): T1 sequence (Q5NQS1 74-338) with S156D, N248D
Source text: In addition, the present invention provides a ribitol dehydrogenase mutant selected from the group consisting of a) a mutant, in which serine, an amino acid at position 156 of the ribitol dehydrogenase having an amino acid sequence as set forth in SEQ ID NO: 4 is substituted with aspartic acid; and b) a mutant, in which tyrosine, an amino acid at position 51 of the ribitol dehydrogenase having an amino acid sequence as set forth in SEQ ID NO: 4 is substituted with aspartic acid and serine, an amino acid at position 156 is substituted with alanine.
The mutants have preferably amino acid sequences as set forth in SEQ ID NOS: 5 and 6, respectively, but the present invention is not limited thereto.
as §1

[9] = biological target: T9, Zymomonas mobilis ribitol dehydrogenase (SEQ ID NO: 4) variant S156E (Zymomonas mobilis, UniProt Q5NQS1, S229E); assay: Dynamical parameters to coenzyme, variant S156E; assay type: biochemical
T9 sequence (Q5NQS1 74-338 S229E): T1 sequence (Q5NQS1 74-338) with S156E
Source text: as §1

[10] = Optimum pH on dehydrogenation activity of the ribitol dehydrogenase; assay type: biochemical; details: 20 mM Tris-HCl buffer; NAD(H) and ribitol; absorbance at 340 nm
Source text: Physicochemical properties of the ribitol dehydrogenase isolated in Example 4 were investigated using ribitol as a substrate.

[11] = Production of L-ribulose from ribitol with cell bodies of recombinant strains expressing the variants; assay type: cell-based, E. coli; details: whole cells; 20 mM Tris-HCl buffer pH 9.5; 25° C.; 6 hours; HPLC
Method: The following experiments were performed in order to produce L-ribulose using a ribitol dehydrogenase variant having double coenzyme specificity. The variants prepared by using the method of Example 5-3 were expressed using the method of Example 2; the cell bodies were only collected by centrifuging (8000×g for 10 minutes) the recombinant strain culture solution; and then the cell bodies were washed with distilled water twice. The final Cell OD was measured and the same amount of cells was used for a production experiment. The ribitol and each of recombinant enzyme variants were subjected to an enzyme reaction in 20 mM of Tris-HCl buffer (pH 9.5) at a temperature of 25° C. for 6 hours.

[12] = coenzyme NAD(H)
Method: as §2

[13] = coenzyme NADP(H)
Method: as §2

[14] = substrate: NC(=O)c1ccc[n+]([C@@H]2O[C@H](COP(=O)(O)OP(=O)(O)OC[C@H]3O[C@@H](n4cnc5c(N)ncnc54)[C@H](OP(=O)(O)O)[C@@H]3O)[C@@H](O)[C@H]2O)c1; assay: purified protein, by the assay type; details: ribitol, wild-type, pH 9.0
[15] = read-out: Km, NAD, NAD 0.01 to 3 mM
[16] = other: NADP(H) 0.1 to 2 mM, 20 mM Tris-HCl, 340 nm

NC(=O)c1ccc[n+]([C@@H]2O[C@H](COP(=O)(O)OP(=O)(O)OC[C@H]3O[C@@H](n4cnc5c(N)ncnc54)[C@H](O)[C@@H]3O)[C@@H](O)[C@H]2O)c1 [NAD^+, nicotinamide adenine dinucleotide]
kcat (NAD^+) ([1]; NAD 0.01 to 3 mM): 4.83 ± 0.51 s⁻¹ | kcat (NAD(H)) ([1]; NAD(H) 0.1 to 2 mM, 20 mM Tris-HCl, 340 nm): about 4.84 s^−1 | Km [1, 15]: 180 ± 20 µM | Km ([1]; read-out: Km, NAD, NAD(H) 0.1 to 2 mM, 20 mM Tris-HCl, 340 nm): ~180 µM | kcat (NAD^+) ([2]; NAD 0.01 to 3 mM): 1.93 ± 0.16 s⁻¹ | Km [2, 15]: 190 ± 20 µM | kcat (NAD^+) ([3]; NAD 0.01 to 3 mM): 1.04 ± 0.02 s⁻¹ | Km [3, 15]: 140 ± 10 µM | kcat (NAD^+) ([4]; NAD 0.01 to 3 mM): 2.85 ± 0.10 s⁻¹ | Km [4, 15]: 210 ± 60 µM | kcat (NAD^+) ([5]; NAD 0.01 to 3 mM): 2.00 ± 0.09 s⁻¹ | Km [5, 15]: 100 ± 20 µM | kcat (NAD^+) ([6]; NAD 0.01 to 3 mM): 1.60 ± 0.13 s⁻¹ | Km [6, 15]: 150 ± 10 µM | kcat (NAD^+) ([7]; NAD 0.01 to 3 mM): 2.62 ± 0.11 s⁻¹ | Km [7, 15]: 160 ± 20 µM | kcat (NAD^+) ([8]; NAD 0.01 to 3 mM): 1.79 ± 0.01 s⁻¹ | Km [8, 15]: 20 ± 2 µM | kcat (NAD^+) ([9]; NAD 0.01 to 3 mM): 2.06 ± 0.07 s⁻¹ | Km [9, 15]: 50 ± 3 µM

B1: Zymomonas mobilis ribitol dehydrogenase, wild-type, SEQ ID NO: 4 (Zymomonas mobilis subsp. mobilis ZM4 = ATCC 31821) (protein)
chain: T1 sequence (Q5NQS1 74-338)
optimum pH [10]: 9.5 | L-ribulose produced, concentration [11]: 0.80 g/L | Relative activity (%), NAD(H) [12]: 100% | Relative activity (%), NADP(H) [13]: 42.9% | Km ([14]; other: NADP 0.01 to 3 mM): 260 ± 20 µM | kcat ([14]; other: NADP 0.01 to 3 mM): 2.79 s⁻¹ | kcat/Km ([14]; other: NADP 0.01 to 3 mM): 10800 M⁻¹ s⁻¹ | Km [14, 16]: 260 µM | kcat [14, 16]: 2.79 s⁻¹
